The values below come from PubChem BioAssay (NCI).

Several values for one entry are separate records, joined by “and”; a condition that tells them apart may be missing. Equal entries are not always repeated.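 Five concentrations, 48 hours, 96-well plates. Abbreviation: GI50, concentration required for 50% inhibition of growth. TGI: total growth inhibition.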 Bounds are passed on as bounds.

Usually TGI stands for the concentration at which net growth stops. A high value points to lower sensitivity of the cells. For orientation: GI50 means the concentration giving 50% growth inhibition.

Test systems include M14 melanoma; NCI-H460 lung; CCRF-CEM leukemia; SK-MEL-28 melanoma; SF-295 CNS; SR leukemia; OVCAR-3 ovarian; CAKI-1 renal; KM12 colon; RPMI-8226 leukemia.
Experiment in all cases: DTP human tumour cell line panel, 48 h

In the case of `CCOC(=O)C1=C(C(=O)c2ccc(C)cc2)C(c2cccc([N+](=O)[O-])c2)C(C(=O)c2ccc(C)cc2)=C(C(=O)OCC)N1`, the TGI in the assay on M14 melanoma was 32.9 µM; with NCI-H460 lung it was > 100 µM; with CCRF-CEM leukemia it was 8.57 µM; in the assay with SK-MEL-28 melanoma, 34.2 µM; in the assay on SF-295 CNS, 32.1 µM; in the assay with SR leukemia, 35.3 µM. Also, the values for the TGI in the assay with OVCAR-3 ovarian, in the assay on CAKI-1 renal and in the assay with KM12 colon were 28.8 µM, 43.5 µM and 25.4 µM, respectively.

As to `CC(C)=CCC/C(C)=C/CC/C(C)=C/Cc1c(O)c2ccccc2oc1=O`, the TGI in the assay on M14 melanoma, with NCI-H460 lung, in the assay on CCRF-CEM leukemia, in the assay on SK-MEL-28 melanoma, in the assay with RPMI-8226 leukemia and with SF-295 CNS was > 100 µM throughout. The TGI in the assay with SR leukemia, with OVCAR-3 ovarian and in the assay with KM12 colon was > 100 µM throughout.

With `CO/C(=N\N=C\c1cccc(Cl)c1)c1ccncc1`, the TGI with M14 melanoma, in the assay on NCI-H460 lung, in the assay on CCRF-CEM leukemia, in the assay with RPMI-8226 leukemia, in the assay with SF-295 CNS and with SR leukemia was > 10 µM throughout. The TGI in the assay on OVCAR-3 ovarian, with CAKI-1 renal and with KM12 colon was > 10 µM throughout.

`CC(C)CNCC(O)COc1ccc(C(C)(C)c2ccc(OCC(O)CNCC(C)C)cc2)cc1` (configuration not stated): the GI50 in the assay with M14 melanoma is 1.76 µM; with NCI-H460 lung it was 1.97 µM; in the assay on CCRF-CEM leukemia, 2.38 µM; in the assay with SK-MEL-28 melanoma it was 1.8 µM; with RPMI-8226 leukemia, 1.88 µM; in the assay on SF-295 CNS it was 2.36 µM. In addition, the GI50 in the assay on SR leukemia was 2.02 µM; in the assay on OVCAR-3 ovarian, 1.92 µM; in the assay with KM12 colon it was 2.38 µM. Further, the total growth inhibition concentration (TGI) was 3.43 µM with M14 melanoma; 4.11 µM in the assay on NCI-H460 lung; 6.18 µM with CCRF-CEM leukemia; 3.69 µM with SK-MEL-28 melanoma; 4.42 µM in the assay with RPMI-8226 leukemia; 6.68 µM in the assay with SF-295 CNS. Further, the values for the TGI with SR leukemia, in the assay with OVCAR-3 ovarian and in the assay with KM12 colon were 4.39 µM, 4.15 µM and 7.41 µM, respectively.

On to `CCc1n(Cc2ccc3ccccc3n2)cc[n+]1Cc1ccc2ccccc2n1`, for which the GI50 in the assay with M14 melanoma was 2.93 µM; in the assay on NCI-H460 lung it was 0.511 µM; in the assay with CCRF-CEM leukemia it was 0.388 µM; with SK-MEL-28 melanoma, 0.196 µM; in the assay on RPMI-8226 leukemia, 0.0172 µM; in the assay with SF-295 CNS, 2.81 µM. Also, the GI50 with SR leukemia was 0.0753 µM; with OVCAR-3 ovarian, 0.0878 µM; in the assay with KM12 colon, 0.185 µM. Further, the TGI in the assay with M14 melanoma came to 21.7 µM; with NCI-H460 lung, 11.9 µM; in the assay on CCRF-CEM leukemia, 15.4 µM; in the assay with SK-MEL-28 melanoma it was 14.7 µM; in the assay with RPMI-8226 leukemia, 10.1 µM; in the assay with SF-295 CNS, 20.1 µM. For the same compound, the TGI in the assay with SR leukemia came to 12.5 µM; in the assay on OVCAR-3 ovarian, 6.66 µM; with KM12 colon it was 11.3 µM.

For `O=C(c1ccccc1)C1CCCCN1C(=O)c1ccccc1` (configuration not stated), the TGI in the assay on M14 melanoma, in the assay with NCI-H460 lung, in the assay on CCRF-CEM leukemia, in the assay on SK-MEL-28 melanoma, with RPMI-8226 leukemia and with SR leukemia was > 100 µM each time. In addition, the TGI in the assay with OVCAR-3 ovarian, in the assay with CAKI-1 renal and in the assay with KM12 colon was > 100 µM each time.

As for `O=C(O)C1C2CCC(O2)C1C(=O)N1CCCCC1` (configuration not stated), the TGI amounted to 26.2 µM in the assay with M14 melanoma; 39.2 µM with NCI-H460 lung; 19.5 µM with SK-MEL-28 melanoma; 7.88 µM in the assay with RPMI-8226 leukemia; 23.9 µM with SF-295 CNS; 14.2 µM with SR leukemia. For the same compound, the values for the TGI with OVCAR-3 ovarian and in the assay on KM12 colon were 4.66 µM and 37.2 µM, respectively.

As for `CCCCc1c2c(nc3c1CCc1cc4cc5c(nc4nc1-3)-c1nc3c(c(CCCC)c1CC5)CCCC3)CCCC2`, the TGI in the assay on M14 melanoma, in the assay on NCI-H460 lung, with CCRF-CEM leukemia, in the assay on SK-MEL-28 melanoma, in the assay with RPMI-8226 leukemia and in the assay on SF-295 CNS was > 100 µM in each case. Besides, the TGI with SR leukemia and in the assay with KM12 colon was > 100 µM each time.

In the case of `CCCCS(=O)CCC(N)C(=O)O` (configuration not stated), the TGI in the assay on M14 melanoma, with NCI-H460 lung, with CCRF-CEM leukemia, in the assay with SK-MEL-28 melanoma, in the assay on SF-295 CNS and in the assay with SR leukemia was > 100 µM throughout. The TGI with OVCAR-3 ovarian, in the assay on CAKI-1 renal and in the assay with KM12 colon was > 100 µM throughout.

For `O=C1C=CC=CC2CC=C[C@@H](O)C12` (some centres not stated), the TGI is 50.7 µM with M14 melanoma; 38 µM in the assay on NCI-H460 lung; > 100 µM in the assay with CCRF-CEM leukemia; 15.3 µM in the assay on RPMI-8226 leukemia; 48.5 µM in the assay with SF-295 CNS; 44.2 µM in the assay on SR leukemia. Also, the TGI in the assay on CAKI-1 renal was > 100 µM; with KM12 colon it was 24.5 µM.

For `O=c1[nH]c(=O)n([C@@H]2C[C@H](CO)[C@H](O)C2)cc1/C=C/Br`, the TGI in the assay on M14 melanoma, in the assay on NCI-H460 lung, in the assay with CCRF-CEM leukemia, in the assay on SK-MEL-28 melanoma, in the assay with RPMI-8226 leukemia and in the assay on SF-295 CNS was > 100 µM throughout. Further, the TGI in the assay on OVCAR-3 ovarian, in the assay with CAKI-1 renal and in the assay with KM12 colon was > 100 µM throughout.

Consider `CC12N=NN(c3ccc([N+](=O)[O-])cc3)C1(O)c1ccccc1C2=O` (configuration not stated), for which the TGI in the assay on M14 melanoma, with NCI-H460 lung, in the assay on RPMI-8226 leukemia, in the assay with SF-295 CNS, in the assay on SR leukemia and with OVCAR-3 ovarian was > 100 µM in each case. For the same compound, the TGI in the assay on KM12 colon was > 100 µM.

As for `CC[C@@]1(O)C[C@H](OC2CC(N(C)C)C(OC3CC(O)C(OC4CCC(=O)C(C)O4)C(C)O3)C(C)O2)c2c(cc3c(c2O)C(=O)c2c(O)cccc2C3=O)[C@H]1C(=O)OC` (some centres not stated), the concentration for total growth inhibition (TGI) in the assay with M14 melanoma is 0.149 µM; in the assay on NCI-H460 lung, 0.06 µM and 0.0662 µM; in the assay on CCRF-CEM leukemia, 0.7 µM and 2.69 µM; with SK-MEL-28 melanoma it was 0.142 µM and 0.453 µM; in the assay with RPMI-8226 leukemia it was 0.261 µM and 0.743 µM; in the assay on SF-295 CNS, 0.224 µM and 0.92 µM. Moreover, the TGI in the assay on OVCAR-3 ovarian was 0.6 µM and 0.169 µM; in the assay on CAKI-1 renal, 0.179 µM and 0.373 µM; in the assay with KM12 colon it was 0.519 µM and 0.56 µM. In addition, the GI50 with CCRF-CEM leukemia is 0.00779 µM and 0.0022 µM; in the assay on RPMI-8226 leukemia it was 0.00904 µM and 0.00447 µM.

Take `COC(=O)C(C(=O)C(=O)Nc1ccc(C(F)(F)F)cc1[N+](=O)[O-])c1csc(-n2nc(-c3ccccc3)cc2-c2ccccc2)n1` (configuration not stated): the TGI with M14 melanoma, in the assay on NCI-H460 lung, with CCRF-CEM leukemia, with RPMI-8226 leukemia, with SF-295 CNS and in the assay with SR leukemia was > 100 µM each time. Moreover, the TGI in the assay on OVCAR-3 ovarian, in the assay with CAKI-1 renal and in the assay with KM12 colon was > 100 µM in each case.

In the case of `CS(=O)(=O)OCCN1CCN(C(=O)c2cccc3c(Nc4ccc(S(=O)(=O)N=C(N)N)cc4)c4ccccc4nc23)CC1`, the TGI with M14 melanoma, with NCI-H460 lung, with CCRF-CEM leukemia, in the assay on SK-MEL-28 melanoma, in the assay on RPMI-8226 leukemia and in the assay on SF-295 CNS was > 100 µM in each case. Moreover, the TGI with OVCAR-3 ovarian, with CAKI-1 renal and with KM12 colon was > 100 µM in each case.

As for `NCCCOCC(=O)O`, the TGI in the assay with SK-MEL-28 melanoma, in the assay on RPMI-8226 leukemia, in the assay with SF-295 CNS, in the assay on SR leukemia, in the assay on OVCAR-3 ovarian and in the assay on KM12 colon was > 100 µM in each case.

In the case of `Cc1ccc(S(=O)(=O)NCCNC2=CC(=O)c3nc4ccccc4c4ccnc2c34)cc1`, the GI50 in the assay on M14 melanoma was 15.7 µM; with NCI-H460 lung, 15.7 µM; in the assay on SK-MEL-28 melanoma, 26.7 µM; in the assay with RPMI-8226 leukemia it was 10.5 µM; with SF-295 CNS it was 17.7 µM; in the assay on SR leukemia it was 4.77 µM. The GI50 in the assay on OVCAR-3 ovarian was 17.5 µM; in the assay on CAKI-1 renal, 20.5 µM; in the assay on KM12 colon, 16.1 µM. For the same compound, the TGI in the assay on M14 melanoma is 58.2 µM; in the assay on NCI-H460 lung it was 56.5 µM; in the assay with SK-MEL-28 melanoma it was 57.9 µM; in the assay with RPMI-8226 leukemia it was > 100 µM; in the assay on SF-295 CNS, 39 µM; in the assay with SR leukemia, > 100 µM. Besides, the total growth inhibition concentration (TGI) with OVCAR-3 ovarian came to 46.4 µM; in the assay with CAKI-1 renal it was 48.3 µM; in the assay on KM12 colon, 34.6 µM.

As to `O=C(Nc1ccc(F)cc1)c1ccc(NC2=C(Cl)C(=O)N(Cc3ccccc3)C2=O)cc1`, the GI50 is 13.4 µM with M14 melanoma; 7.32 µM in the assay with NCI-H460 lung; 16.5 µM in the assay with SK-MEL-28 melanoma; 3.43 µM in the assay on RPMI-8226 leukemia; 4.27 µM in the assay on SF-295 CNS; 0.848 µM with SR leukemia. In addition, the GI50 is 3.59 µM in the assay on OVCAR-3 ovarian, 1.78 µM in the assay on CAKI-1 renal and 15.9 µM with KM12 colon. The TGI with M14 melanoma was 30.3 µM; in the assay with NCI-H460 lung, > 100 µM; with SK-MEL-28 melanoma it was 39.5 µM; with RPMI-8226 leukemia, 12.3 µM; with SF-295 CNS, 16.6 µM; with SR leukemia it was 2.54 µM. Further, the TGI with OVCAR-3 ovarian stood at 15.3 µM; in the assay with CAKI-1 renal, 3.36 µM; with KM12 colon it was 38 µM.
